Values after ≈ are worked out from the molar mass of the structure shown. Where two headings read alike, the source gives them in different places.
Test system: N. gonorrhoeae
Test: MIC determination, Etest
Format: cell-based, Neisseria gonorrhoeae
Details: for MIC: Neisseria gonorrhoeae, comparator antibiotics, read-out: Minimum inhibitory concentration
Text: The 2024 WHO N. gonorrhoeae reference strains were used for quality control. Only whole MIC doubling dilutions are reported. Clinical breakpoints or the epidemiological cutoff (ECOFF, to indicate azithromycin resistance) from EUCAST (v14.0, https://www.eucast.org/clinical_breakpoints) were used to classify isolates as antimicrobial susceptible or resistant. […] Two times the standard inoculum defined by CLSI was used to establish consistent growth in untreated control samples for some strains. In vitro time-kill assays were performed according to CLSI guidelines[65] using Columbia Broth (BD Difco) supplemented with 1% IsoVitaleX Enrichment (BD). Viable bacterial counts were generated by plating 10-fold serially diluted samples on GC agar plates containing 1% IsoVitaleX Enrichment (BD).

Question: How did the MIC (clinical N. gonorrhoeae isolate 50, Sweden 2023) turn out when `CC[C@H]1OC(=O)[C@H](C)[C@@H](O[C@H]2C[C@@](C)(OC)[C@@H](O)[C@H](C)O2)[C@H](C)[C@@H](O[C@@H]2O[C@H](C)C[C@H](N(C)C)[C@H]2O)[C@](C)(O)C[C@@H](C)CN(C)[C@H](C)[C@@H](O)[C@]1(C)O` [Azithromycin] was run?
Answer: Its MIC is 0.25 mg/L (≈ 0.334 µM).

Question: What about the MIC (clinical N. gonorrhoeae isolate 51, Sweden 2023) of the same compound?
Answer: Its MIC is 0.064 mg/L (≈ 0.0854 µM).

Question: What about the MIC (clinical N. gonorrhoeae isolate 52, Sweden 2023) of the same compound?
Answer: Its MIC is 0.25 mg/L (≈ 0.334 µM).

Question: What about the MIC (clinical N. gonorrhoeae isolate 53, Sweden 2023) of the same compound?
Answer: The MIC was 0.125 mg/L (≈ 0.167 µM).

Question: And the MIC (clinical N. gonorrhoeae isolate 54, Sweden 2023)?
Answer: The MIC was 0.5 mg/L (≈ 0.668 µM).

Question: What about the MIC (clinical N. gonorrhoeae isolate 55, Sweden 2023) of the same compound?
Answer: Its MIC is 0.5 mg/L (≈ 0.668 µM).

Question: What about the MIC (clinical N. gonorrhoeae isolate 56, Sweden 2023) of the same compound?
Answer: The MIC was 0.25 mg/L (≈ 0.334 µM).

Question: What about the MIC (clinical N. gonorrhoeae isolate 57, Sweden 2023) of the same compound?
Answer: Its MIC is 0.064 mg/L (≈ 0.0854 µM).

Question: And the MIC (clinical N. gonorrhoeae isolate 58, Sweden 2023)?
Answer: Its MIC is 0.125 mg/L (≈ 0.167 µM).

Question: What about the MIC (clinical N. gonorrhoeae isolate 59, Sweden 2023) of the same compound?
Answer: Its MIC is 0.064 mg/L (≈ 0.0854 µM).

Question: What about the MIC (clinical N. gonorrhoeae isolate 60, Sweden 2023) of the same compound?
Answer: The MIC was 0.5 mg/L (≈ 0.668 µM).

Question: And the MIC (clinical N. gonorrhoeae isolate 61, Sweden 2023)?
Answer: Its MIC is 0.125 mg/L (≈ 0.167 µM).

Question: What about the MIC (clinical N. gonorrhoeae isolate 62, Sweden 2023) of the same compound?
Answer: The MIC was 0.016 mg/L (≈ 0.0214 µM).

Question: And the MIC (clinical N. gonorrhoeae isolate 63, Sweden 2023)?
Answer: Its MIC is 0.25 mg/L (≈ 0.334 µM).

Question: And the MIC (clinical N. gonorrhoeae isolate 64, Sweden 2023)?
Answer: Its MIC is 0.5 mg/L (≈ 0.668 µM).

Question: And the MIC (clinical N. gonorrhoeae isolate 65, Sweden 2023)?
Answer: Its MIC is 0.064 mg/L (≈ 0.0854 µM).

Question: And the MIC (clinical N. gonorrhoeae isolate 66, Sweden 2023)?
Answer: The MIC was 0.25 mg/L (≈ 0.334 µM).

Question: And the MIC (clinical N. gonorrhoeae isolate 67, Sweden 2023)?
Answer: The MIC was 0.25 mg/L (≈ 0.334 µM).

Question: And the MIC (clinical N. gonorrhoeae isolate 68, Sweden 2023)?
Answer: Its MIC is 0.064 mg/L (≈ 0.0854 µM).

Question: What about the MIC (clinical N. gonorrhoeae isolate 69, Sweden 2023) of the same compound?
Answer: Its MIC is 0.25 mg/L (≈ 0.334 µM).

Question: What about the MIC (clinical N. gonorrhoeae isolate 70, Sweden 2023) of the same compound?
Answer: The MIC was 0.125 mg/L (≈ 0.167 µM).

Question: What about the MIC (clinical N. gonorrhoeae isolate 71, Sweden 2023) of the same compound?
Answer: The MIC was 2 mg/L (≈ 2.67 µM).

Question: What about the MIC (clinical N. gonorrhoeae isolate 72, Sweden 2023) of the same compound?
Answer: The MIC was 0.125 mg/L (≈ 0.167 µM).

Question: What about the MIC (clinical N. gonorrhoeae isolate 73, Sweden 2023) of the same compound?
Answer: Its MIC is 0.064 mg/L (≈ 0.0854 µM).

Question: What about the MIC (clinical N. gonorrhoeae isolate 74, Sweden 2023) of the same compound?
Answer: The MIC was 0.5 mg/L (≈ 0.668 µM).

Question: What about the MIC (clinical N. gonorrhoeae isolate 75, Sweden 2023) of the same compound?
Answer: Its MIC is 0.5 mg/L (≈ 0.668 µM).

Question: What about the MIC (clinical N. gonorrhoeae isolate 76, Sweden 2023) of the same compound?
Answer: Its MIC is 0.125 mg/L (≈ 0.167 µM).

Question: And the MIC (clinical N. gonorrhoeae isolate 77, Sweden 2023)?
Answer: The MIC was 0.064 mg/L (≈ 0.0854 µM).

Question: What about the MIC (clinical N. gonorrhoeae isolate 78, Sweden 2023) of the same compound?
Answer: Its MIC is 0.25 mg/L (≈ 0.334 µM).

Question: And the MIC (clinical N. gonorrhoeae isolate 79, Sweden 2023)?
Answer: Its MIC is 0.064 mg/L (≈ 0.0854 µM).

Question: And the MIC (clinical N. gonorrhoeae isolate 80, Sweden 2023)?
Answer: Its MIC is 0.125 mg/L (≈ 0.167 µM).

Question: And the MIC (clinical N. gonorrhoeae isolate 81, Sweden 2023)?
Answer: The MIC was 0.25 mg/L (≈ 0.334 µM).

Question: What about the MIC (clinical N. gonorrhoeae isolate 82, Sweden 2023) of the same compound?
Answer: Its MIC is 2 mg/L (≈ 2.67 µM).

Question: What about the MIC (clinical N. gonorrhoeae isolate 83, Sweden 2023) of the same compound?
Answer: Its MIC is 0.032 mg/L (≈ 0.0427 µM).

Question: And the MIC (clinical N. gonorrhoeae isolate 84, Sweden 2023)?
Answer: The MIC was 0.5 mg/L (≈ 0.668 µM).

Question: What about the MIC (clinical N. gonorrhoeae isolate 85, Sweden 2023) of the same compound?
Answer: The MIC was 0.125 mg/L (≈ 0.167 µM).

Question: What about the MIC (clinical N. gonorrhoeae isolate 86, Sweden 2023) of the same compound?
Answer: Its MIC is 0.125 mg/L (≈ 0.167 µM).

Question: And the MIC (clinical N. gonorrhoeae isolate 87, Sweden 2023)?
Answer: The MIC was 0.125 mg/L (≈ 0.167 µM).

Question: What about the MIC (clinical N. gonorrhoeae isolate 88, Sweden 2023) of the same compound?
Answer: Its MIC is 0.5 mg/L (≈ 0.668 µM).

Question: And the MIC (clinical N. gonorrhoeae isolate 89, Sweden 2023)?
Answer: The MIC was 0.25 mg/L (≈ 0.334 µM).

Question: What about the MIC (clinical N. gonorrhoeae isolate 90, Sweden 2023) of the same compound?
Answer: Its MIC is 0.125 mg/L (≈ 0.167 µM).

Question: What about the MIC (clinical N. gonorrhoeae isolate 91, Sweden 2023) of the same compound?
Answer: The MIC was 0.032 mg/L (≈ 0.0427 µM).

Question: What about the MIC (clinical N. gonorrhoeae isolate 92, Sweden 2023) of the same compound?
Answer: The MIC was 0.5 mg/L (≈ 0.668 µM).

Question: What about the MIC (clinical N. gonorrhoeae isolate 93, Sweden 2023) of the same compound?
Answer: Its MIC is 0.032 mg/L (≈ 0.0427 µM).

Question: What about the MIC (clinical N. gonorrhoeae isolate 94, Sweden 2023) of the same compound?
Answer: Its MIC is 0.032 mg/L (≈ 0.0427 µM).

Question: And the MIC (clinical N. gonorrhoeae isolate 95, Sweden 2023)?
Answer: The MIC was 0.5 mg/L (≈ 0.668 µM).

Question: What about the MIC (clinical N. gonorrhoeae isolate 96, Sweden 2023) of the same compound?
Answer: The MIC was 0.25 mg/L (≈ 0.334 µM).

Question: And the MIC (clinical N. gonorrhoeae isolate 97, Sweden 2023)?
Answer: The MIC was 0.25 mg/L (≈ 0.334 µM).

Question: And the MIC (clinical N. gonorrhoeae isolate 98, Sweden 2023)?
Answer: Its MIC is 0.064 mg/L (≈ 0.0854 µM).

Question: What about the MIC (clinical N. gonorrhoeae isolate 99, Sweden 2023) of the same compound?
Answer: The MIC was 0.064 mg/L (≈ 0.0854 µM).

Question: What about the MIC (clinical N. gonorrhoeae isolate 100, Sweden 2023) of the same compound?
Answer: Its MIC is 0.064 mg/L (≈ 0.0854 µM).

Question: What about the “AMR phenotype (susceptibility category, EUCAST)” value (shortened to “AMR phenotype”) (WHO F) of the same compound?
Answer: The value was “S”.

Question: What about the “AMR phenotype” value (WHO H) of the same compound?
Answer: Its value is “S”.

Question: What about the “AMR phenotype” value (WHO K) of the same compound?
Answer: The value was “S”.

Question: And the “AMR phenotype” value (WHO L)?
Answer: The value was “S”.

Question: What about the “AMR phenotype” value (WHO M) of the same compound?
Answer: Its value is “S”.

Question: What about the “AMR phenotype” value (WHO O) of the same compound?
Answer: Its value is “S”.

Question: What about the “AMR phenotype” value (WHO P) of the same compound?
Answer: Its value is “R”.

Question: And the “AMR phenotype” value (WHO Q)?
Answer: The value was “R”.

Question: What about the “AMR phenotype” value (WHO R) of the same compound?
Answer: The value was “S”.

Question: What about the “AMR phenotype” value (WHO S2) of the same compound?
Answer: Its value is “R”.

Question: And the “AMR phenotype” value (WHO U)?
Answer: The value was “R”.

Question: And the “AMR phenotype” value (WHO V)?
Answer: Its value is “R”.

Question: What about the “AMR phenotype” value (WHO X) of the same compound?
Answer: The value was “S”.

Question: And the “AMR phenotype” value (WHO Y)?
Answer: Its value is “S”.

Question: What about the “AMR phenotype” value (WHO Z) of the same compound?
Answer: Its value is “S”.
